Experiments:
[1] = system: vascular endothelial cells; assay: Vascular endothelial cell permeability with SCF (transwell, FITC-dextran); type: cell-based; conditions: SCF 10, 20 and 50 ng/ml for 1 hour; FITC-conjugated dextran 1 mg/ml, 30 minutes; FIG. 1A
Experimental: Vascular endothelial cells were loaded in the upper chamber of 12 well transwell filter (Corning Costar), followed by culture for 48 hours. The medium was replaced with the endothelical basal medium supplemented with 1% FBS, followed by further culture for 3 hours. SCF (R&D Systems, Minneapolis, Minn., USA) was treated thereto at different concentrations (10, 20, and 50 ng/ml) for 1 hour, followed by the treatment with FITC-conjugated dextran (fluorescein isothiocyanate-dextran) (1 mg/ml). 30 minutes later, the culture fluid was taken from the lower chamber, followed by the measurement with a fluorophotometer.

[2] = system: vascular endothelial cells; assay: C-Kit dependent permeability of vascular endothelial cells with SCF (siRNA, transwell, FITC-dextran); type: cell-based; conditions: SCF 20 ng/ml; FITC-conjugated dextran; FIG. 1B
Experimental: Vascular endothelial cells were loaded in 60 mm plate. The control siRNA 5′-[…]-3′ (SEQ. ID. NO: 1) and the C-Kit siRNAs 5′-UCAUUCUUGAUGUCUCUGG-3′ (SEQ. ID. NO: 2); 5′-UUUGAGUUCAGACAUGAGG-3′ (SEQ. ID. NO: 3); 5′-UCUUAUAAAGUGCAGCUUC-3′ (SEQ. ID. NO: 4); and 5′-UACAAUGCCAUUCUGAAGC-3′ (SEQ. ID. NO: 5) were introduced in the cells by using lipofectamin. 24 hours later, the endothelial cells were transferred into the upper chamber of 12 well transwell filter (Corning Costar), followed by culture for 24 hours. The medium was replaced with the endothelical basal medium supplemented with 1% FBS, followed by further culture for 3 hours. SCF was treated thereto at the concentration of 20 ng/ml, followed by the treatment with FITC-conjugated dextran (1 mg/ml). 30 minutes later, the culture fluid was taken from the lower chamber, followed by the measurement with a fluorophotometer.

[3] = system: C-Kit and Akt-eNOS; assay: Intracellular signaling pathway of vascular endothelial cells with SCF (Western blotting); type: cell-based; conditions: SCF 20 ng/ml, cells harvested over time, FIG. 1C
Experimental: Vascular endothelial cells were loaded in 60 mm plate, followed by culture for 24 hours. The medium was replaced with the endothelical basal medium supplemented with 1% FBS, followed by further culture for 6 hours. SCF (20 ng/ml) was treated thereto and the cells were harvested over the time, followed by Western blotting.

[4] = system: NO (nitric oxide) in vascular endothelial cells; assay: Generation of NO in vascular endothelial cells induced by SCF; type: cell-based; conditions: SCF 20 ng/ml; culture supernatant collected over time; FIG. 2A
Experimental: Vascular endothelial cells were cultured in 12 well plate for 24 hours. The medium was replaced with the endothelial basal medium supplemented with 1% FBS, which was then treated with SCF (20 ng/ml). The culture fluid was collected over the time, followed by centrifugation. The level of NO (nitric oxide) in the supernatant was measured (Total No/Nitrite/Nitrate Assay Kit).

[5] = system: vascular endothelial cells; assay: eNOS dependent increase of vascular endothelial cell permeability by SCF (L-NAME, transwell); type: cell-based; conditions: SCF 20 ng/ml for 1 hour; FIG. 2B
Experimental: Vascular endothelial cells were loaded in the upper chamber of 12 well transwell filter (Corning Costar), followed by culture for 48 hours. The medium was replaced with the endothelical basal medium supplemented with 1% FBS, followed by further culture for 3 hours. L-NAME, the eNOS inhibitor, was pretreated (1 mM) to the cells for 30 minutes and then SCF (R&D Systems, Minneapolis, Minn., USA) was treated (20 ng/ml) thereto for 1 hour. FITC-conjugated dextran (fluorescein isothiocyanate-dextran) was also treated (1 mg/ml) thereto. 30 minutes later, the culture fluid was taken from the lower chamber, followed by the measurement with a fluorophotometer.

[6] = system: VE-cadherin; assay: VE-cadherin endocytosis of vascular endothelial cells (immunostaining); type: cell-based; conditions: SCF 20 ng/ml or VEGF 50 ng/ml, 37° C., 30 minutes; for expression of VE-cadherin on the cell surface: FIG. 2C; for endocytosis of VE-cadherin: acid buffer wash, FIG. 2D
Experimental: Vascular endothelial cells were cultured in 8 well chamber slide (Lab-Tek) for 48 hours. The medium was replaced with the endothelical basal medium supplemented with 1% FBS, followed by culture for 16 hours. The cells were treated with VE-cadherin antibody (R&D Systems, Minneapolis, Minn., USA) at 4° C. for 1 hour. SCF (20 ng/ml) and VEGF (50 ng/ml) (R&D Systems, Minneapolis, Minn., USA) were added thereto at 37° C. for 30 minutes to introduce VE-cadherin into the cells. To observe VE-cadherin on the cell surface, fixation was performed with 4% PFA, followed by immunostaining. To observe VE-cadherin in the inside of the cells migrated by SCF and VEGF mediated endocytosis, VE-cadherin on the cell surface was first removed by using an acid buffer (pH 2.7) and then the cells were fixed with 4% PFA, followed by immunostaining. Then, observation under a fluorescence microscope was performed.

[7] = system: C57/BL mouse; assay: Vascular permeability in mouse subcutaneous tissue (Evans blue dye, back skin, OD620); type: in vivo; conditions: SCF injected intradermally; skin collected after 20 minutes; FIG. 3A, 3B
Experimental: Evans blue dye […] was injected intravenously in the tail of C57/BL mouse. 10 minutes later, SCF and SCF receptor inhibiting antibody (anti-cKit IgG: Monoclonal anti-SCF receptor neutralization antibody: R&D Systems, Minneapolis, Minn., USA) were injected intradermally on the back of the mouse. 20 minutes later, the back skin of the mouse was collected. The region where Evans blue dye was penetrated through tissues was photographed. The skin was fixed in formamide, which stood at room temperature for 4 days. Then, OD620 was measured by using a spectrophotometer.

[8] = system: mouse retinal vessels; assay: Angiography of mouse retinal vessels (FITC-dextran, flat mount); type: in vivo; conditions: SCF injected in the retina; 24 hours; FIG. 4A, 4B
Experimental: SCF and SCF receptor inhibiting antibody were injected in the retina of C57/BL6 mouse. 24 hours later, the mouse was anesthetized and then intracardiac FITC-dextran injection was performed in order to let the fluorescein flow through blood. 30 minutes later, the retina of the mouse was extracted and observed under a fluorescence microscope after flat mounting.

| Substance | permeability of vascular endothelial cells [1] | permeability of the endothelial cells [2] | phosphorylation of C-Kit and Akt-eNOS [3] | level of NO [4] | permeability of endothelial cells [5] | expression of VE-cadherin on the cell surface [6] | endocytosis of VE-cadherin [6] | vascular permeability of the mouse (Evans blue leakage in back skin) [7] | retinal vessel permeability [8] |
| --- | --- | --- | --- | --- | --- | --- | --- | --- | --- |
| SCF: cytokine binding to C-Kit (CD117); R&D Systems | increased by the treatment of SCF dose-dependently | increased | induced the phosphorylation | increased | increased | reduced | induced | increased | increased |
| VEGF | – | – | – | – | – | decreased | increased | – | – |

Reference: patent US9528112B2, “Composition comprising material for inhibiting SCF or receptor thereof for treating or preventing diseases associated with vascular permeability” (AJOU UNIVERSITY INDUSTRY-ACADEMIC COOPERATION FOUNDATION, priority 2012, dated 2016)
